Measurements: US20140088144A1, “INHIBITING MICROBIAL INFECTIONS” (THE UNIVERSITY OF KANSAS, priority 2012, published 2014)

Legend:
L-929 cells = experiment: AlamarBlue metabolic activity / viability assay; type: cell-based, mouse
Experimental: AlamarBlue® assays were performed as a control to test whether SE-1 had any impact on the metabolic activity of the host cells, as follows: L-929 cells were seeded into 96-well plates and grown overnight to ˜90% confluency. SE-1 was serially diluted in RPMI supplemented with 10 μg/ml gentamycin and 5% FBS, added to the wells, and incubated at 37° C. for 3 h. Cells were washed with 200 μl Hank's buffered salt solution (Mediatech) and incubated with 200 μl RPMI (without phenol red) containing 10% AlamarBlue® (also known as Resazurin, Invitrogen, Grand Island, N.Y.). Following 8 h incubation at 37° C., the absorbance was measured at 570 nm and 600 nm using a PowerWave XS plate reader, and the metabolic activity of the cells (as a percentage of untreated controls) was calculated using the following formula provided by the manufacturer: (117,216×A570−80,586×A600)/(117,216×A′570−80,586×A′600)×100, where A is the absorbance of test wells, and A′ is the absorbance of positive control wells (mock-infection).

[1] = target: T1, RhaS(163-278) (RhaS DNA-binding domain) (Escherichia coli, UniProt P09377); experiment: In vivo dose-response, rhaB-lacZ fusion activated by RhaS(163-278) (RhaS-DBD); type: cell-based, E. coli
T1 construct: expressed in transfected cells; host or cells: E. coli SME3635 (rhaB-lacZ, pHG165 expressing RhaS(163-278))
Source text: For dose-response studies, a rhaB-lacZ reporter strain was designed that allowed IPTG induction of RhaS or RhaS(163-278) expression from pHG165 (and thus rhaB-lacZ expression). The strain was constructed by introducing malP::lacIq into SME3000 via phage P1vir-mediated generalized transduction. First, SME3000 was transduced with Δcrp-3 zhc-511::Tn10 from SME1403, selecting for tetracycline resistance and screening for sorbitol deficiency (indicating Δcrp) using MacConkey sorbitol. SME3000 Acrp-3 zhc-511::Tn10 was transduced with crp^+ malP::lacI^q from SG22166, selecting for growth on minimal sorbitol and screening for maltose deficiency (indicating malP::lacI^q) using MacConkey maltose. […]
The top hit identified in the screen was 1-ethyl-4-(nitromethyl)-3-quinolin-2-yl-4H-quinoline, Compound 2. […] Lysis/ONPG buffer (50 μL, as in Primary Screen) was added to each well and the plate was immediately placed into a PowerWave XS plate reader (BioTek Instruments, Inc., Winooski, Vt.), set to read the OD420 of each well every 15 min for 4 hr. […] Due to differences in kinetics of lacZ reporter expression, the rhaB-lacZ strains were analyzed at 4 hours and the hts-lacZ strain was analyzed at 1 hr. Percent activity was calculated for each condition as described above, using the single time point with appropriate OD420 levels for each strain. […]

T1 sequence (P09377 163-278): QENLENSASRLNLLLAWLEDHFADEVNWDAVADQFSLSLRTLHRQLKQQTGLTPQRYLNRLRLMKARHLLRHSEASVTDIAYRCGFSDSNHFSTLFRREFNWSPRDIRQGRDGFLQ

## CCCCN1C=C(c2ccc3ccccc3n2)C(C[N+](=O)[O-])c2ccccc21 (stereo not shown) [Compound 1, 1-butyl-4-(nitromethyl)-3-quinolin-2-yl-4H-quinoline]
L-929 cells; 40 μM SE-1
  host cell viability: no effect
L-929 cells; 0.2 and 0.4 μM SE-1
  viability of L-929 cells: did not detectably decrease the viability
[1]; RhaS-DBD
  inhibition of RhaS(163-278)-activated expression: fully inhibit expression
[1]; RhaS-DBD (SME3635), read-out: IC50, rhaB-lacZ activation by RhaS(163-278)
  IC50: ~10 µM
